Reference: patent US11845760B2, “PRMT5 inhibitors” (AMGEN INC., priority 2020, dated 2023)

Assays:
[1] = test system: HCT116 MTAP null cells; test: HCT116 MTAP null cell line proliferation (CellTiter-Glo cell viability, 6 days); assay type: cell-based; details: HCT116-MTAP null, 144 h, HCT116 MTAP null cells, 6 days of treatment, CellTiter-Glo cell viability; read-out: HCT-116 MTAP null IC50
How it was run: (§1)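 Isogenic HCT116 pair (both MTAP alleles knocked out vs parent) in RPMI 1640 + 10% FBS, seeded overnight at 37° C, 5% CO2, then exposed 6 days to 8- or 9-point 1:3 dilutions from 1 or 10 μM. CellTiter-Glo luminescence; IC50 from sigmoidal fit, Hill slope fixed −1, top 100%, or 4-parameter logistic.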

[2] = test system: HCT116 WT cells; test: HCT116 WT cell line proliferation (CellTiter-Glo cell viability, 6 days); assay type: cell-based; details: Homo sapiens, HCT-116, 144 h, HCT116 WT (parent) cells, 6 days of treatment, CellTiter-Glo cell viability; read-out: HCT-116 WT IC50
How it was run: as §1

SMILES | IC50 [1] [nM] | IC50 [2] [nM]
Cn1ncc2c3cc(C(=O)N4CC[C@H](c5ccc(C(F)(F)F)cc5)C4)c(F)cc3nc(N)c21 [Example 437, (4-amino-7-fluoro-3-methyl-3H-pyrazolo[3,4-c]quinolin-8-yl)((3R)-3-(4-(trifluoromethyl)phenyl)-1-pyrrolidinyl)methanone] | 924 | 16000
Cn1ncc2c(N)nc3cc(F)c(C(=O)N4CC(O)(c5ccc(C(F)(F)F)cc5)C4)cc3c21 [Example 439, (4-amino-7-fluoro-1-methyl-1H-pyrazolo[4,3-c]quinolin-8-yl)(3-hydroxy-3-(4-(trifluoromethyl)phenyl)-1-azetidinyl)methanone] | 21 | 887
Cn1ncc2c(N)nc3cc(Cl)c(C(=O)N4CC(c5ccc(C(F)(F)F)cn5)C4)cc3c21 [Example 442, (4-amino-7-chloro-1-methyl-1H-pyrazolo[4,3-c]quinolin-8-yl)(3-(5-(trifluoromethyl)-2-pyridinyl)-1-azetidinyl)methanone] | 40 | 3610
Cn1ncc2c(N)nc3cc(Cl)c(C(=O)N4CC(O)(c5ccc(C(F)(F)F)cc5)C4)cc3c21 [Example 444, (4-amino-7-chloro-1-methyl-1H-pyrazolo[4,3-c]quinolin-8-yl)(3-hydroxy-3-(4-(trifluoromethyl)phenyl)-1-azetidinyl)methanone] | 18 | 499
Cn1ncc2c(N)nc3cc(F)c(C(=O)N4C[C@@H](CO)[C@H](c5ccc(C(F)(F)F)cc5F)C4)cc3c21 [Example 446, (4-amino-7-fluoro-1-methyl-1H-pyrazolo[4,3-c]quinolin-8-yl)((3R,4S)-3-(2-fluoro-4-(trifluoromethyl)phenyl)-4-(hydroxymethyl)-1-pyrrolidinyl)methanone] | 14 | 240
Cn1ncc2c(N)nc3cnc(C(=O)N4CCOC[C@@H]4c4ccc(S(F)(F)(F)(F)F)cc4)cc3c21 [Example 448, (4-amino-1-methyl-1H-pyrazolo [4,3-c][1,7]naphthyridin-8-yl)((3S)-3-(4-(pentafluoro-lambda~6~-sulfanyl)phenyl)-4-morpholinyl)methanone] | 6 | 130
Cn1ncc2c(N)nc3cc(Cl)c(C(=O)N4C[C@@H](CO)[C@H](c5ccc(C(F)(F)F)cc5F)C4)cc3c21 [Example 449, (4-amino-7-chloro-1-methyl-1H-pyrazolo[4,3-c]quinolin-8-yl)((3R,4S)-3-(2-fluoro-4-(trifluoromethyl)phenyl)-4-(hydroxymethyl)-1-pyrrolidinyl)methanone] | 7 | 145
Cn1ncc2c(N)nc3cc(F)c(C(=O)N4CCOC[C@@H]4c4ccc(S(F)(F)(F)(F)F)cc4)cc3c21 [Example 450, (4-amino-7-fluoro-1-methyl-1H-pyrazolo [4,3-c]quinolin-8-yl)((3S)-3-(4-(pentafluoro-lambda~6~-sulfanyl)phenyl)-4-morpholinyl)methanone] | 5 | 40
Nc1nc2ccc(C(=O)N3CCOC[C@@H]3c3ccc(OC(F)(F)F)cc3)cc2c2c1COCC2 [Example 484, (5-amino-2,4-dihydro-1H-pyrano[3,4-c]quinolin-9-yl)-[(3S)-3-[4-(trifluoromethoxy)phenyl]morpholin-4-yl]methanone] | 656 | > 10000
Nc1nc2ccc(C(=O)N3CCOC[C@@H]3c3ccc(C(F)(F)F)cc3)cc2c2cnccc12 [Example 503, (5-aminobenzo[c][2,6]naphthyridin-9-yl)((3S)-3-(4-(trifluoromethyl)phenyl)-4-morpholinyl)methanone] | 39 | 867
Nc1nc2cnc(C(=O)N3CCOC[C@@H]3c3ccc(C(F)(F)F)cc3)cc2c2cncnc12 [Example 504, (5-aminopyrimido[4,5-c][1,7]naphthyridin-9-yl)((3S)-3-(4-(trifluoromethyl)phenyl)-4-morpholinyl)methanone] | 810 | 6380
Nc1nc2cnc(C(=O)N3CCOC[C@@H]3c3ccc(OC(F)(F)F)cc3)cc2c2c1COC2 [Example 506, (4-amino-1,3-dihydrofuro[3,4-c][1,7]naphthyridin-8-yl)-[(3S)-3-[4-(trifluoromethoxy)phenyl]morpholin-4-yl]methanone] | 61 | 2530
Nc1nc2ccc(C(=O)N3CCOC[C@@H]3c3ccc(C(F)(F)C(F)(F)F)cc3)cc2c2c1COC2 [Example 510, (4-amino-1,3-dihydrofuro[3,4-c]quinolin-8-yl)((3S)-3-(4-(pentafluoroethyl)phenyl)-4-morpholinyl)methanone] | 43 | 1580
Nc1nc2cnc(C(=O)N3CCOC[C@@H]3c3ccc(OC(F)(F)F)cc3)cc2c2c1CCC2 [Example 514, (6-amino-8,9-dihydro-7H-cyclopenta[c][1,7]naphthyridin-2-yl)((3S)-3-(4-(trifluoromethoxy)phenyl)-4-morpholinyl)methanone] | 210 | 2590
C[C@@H]1COC[C@H](c2ccc(C(F)(F)F)cn2)N1C(=O)c1cc2c3c(c(N)nc2cn1)CCC3 [Example 515, (6-amino-8,9-dihydro-7H-cyclopenta[c][1,7]naphthyridin-2-yl)((3R,5S)-3-methyl-5-(5-(trifluoromethyl)-2-pyridinyl)-4-morpholinyl)methanone] | 47 | 541
Nc1nc2cnc(C(=O)N3CCOC[C@@H]3c3ccc(OC(F)F)cn3)cc2c2c1COC2 [Example 516, (4-amino-1,3-dihydrofuro[3,4-c][1,7]naphthyridin-8-yl)((3S)-3-(5-(difluoromethoxy)-2-pyridinyl)-4-morpholinyl)methanone] | 211 | 9120
C[C@@H]1COC[C@H](c2ccc(C(F)(F)F)cn2)N1C(=O)c1cc2c(cc1F)nc(N)c1c2cnn1C [Example 517, (4-amino-7-fluoro-3-methyl-3H-pyrazolo[3,4-c]quinolin-8-yl)((3R,5S)-3-methyl-5-(5-(trifluoromethyl)-2-pyridinyl)-4-morpholinyl)methanone] | 8 | 151

More lines, in order of falling IC50 [1], values ahead:

IC50 [1] [nM] | IC50 [2] [nM] | SMILES
878 | 15200 | C[C@H]1OCc2c1c(N)nc1ccc(C(=O)N3CC[C@](F)(c4ccc(C(F)(F)F)cc4)C3)cc21 [Example 438, ((3R)-4-amino-3-methyl-1,3-dihydrofuro[3,4-c]quinolin-8-yl)((3S)-3-fluoro-3-(4-(trifluoromethyl)phenyl)-1-pyrrolidinyl)methanone]
843 | > 10000 | Nc1nc2ncc(C(=O)N3CCOC[C@@H]3c3ccc(OC(F)(F)F)cc3)cc2c2c1COC2 [Example 507, (4-amino-1,3-dihydrofuro[3,4-c][1,8]naphthyridin-8-yl)-[(3S)-3-[4-(trifluoromethoxy)phenyl]morpholin-4-yl]methanone]
819 | 11600 | Nc1nc2ccc(C(=O)N3CCOC[C@@H]3c3ccc(C(F)(F)F)cc3)cc2c2cncnc12 [Example 502, (5-aminopyrimido[4,5-c]quinolin-9-yl)((3S)-3-(4-(trifluoromethyl)phenyl)-4-morpholinyl)methanone]
251 | 3760 | C[C@H]1OCc2c1c(N)nc1ccc(C(=O)N3CC[C@](O)(c4ccc(C(F)(F)F)cc4)C3)cc21 [Example 435, ((3R)-4-amino-3-methyl-1,3-dihydrofuro[3,4-c]quinolin-8-yl)((3S)-3-hydroxy-3-(4-(trifluoromethyl)phenyl)-1-pyrrolidinyl)methanone]
162 | 15400 | Cn1ncc2c(N)nc3cnc(C(=O)N4CCOC[C@@H]4c4ccc(OC(F)F)nn4)cc3c21 [Example 451, (4-amino-1-methyl-1H-pyrazolo[4,3-c][1,7]naphthyridin-8-yl)((3S)-3-(6-(difluoromethoxy)-3-pyridazinyl)-4-morpholinyl)methanone]
43 | 1130 | Nc1nc2cnc(C(=O)N3CCOC[C@@H]3c3ccc(C(F)(F)C(F)(F)F)cc3)cc2c2c1COC2 [Example 511]
37 | 689 | Nc1nc2cnc(C(=O)N3CCOC[C@@H]3c3ccc(C(F)(F)F)cc3)cc2c2cnccc12 [Example 501, (5-aminopyrido[4,3-c][1,7]naphthyridin-9-yl)((3S)-3-(4-(trifluoromethyl)phenyl)-4-morpholinyl)methanone]
29 | 1720 | Cn1ncc2c(N)nc3cc(F)c(C(=O)N4CC[C@H](c5ccc(C(F)(F)F)cc5)C4)cc3c21 [Example 436, (4-amino-7-fluoro-1-methyl-1H-pyrazolo[4,3-c]quinolin-8-yl)((3R)-3-(4-(trifluoromethyl)phenyl)-1-pyrrolidinyl)methanone]
14 | 602 | Cn1ncc2c(N)nc3cc(Cl)c(C(=O)N4CC(c5ccc(C(F)(F)F)cc5)C4)cc3c21 [Example 440, (4-amino-7-chloro-1-methyl-1H-pyrazolo[4,3-c]quinolin-8-yl)(3-(4-(trifluoromethyl)phenyl)-1-azetidinyl)methanone]
13 | 793 | Cn1ncc2c(N)nc3cc(Cl)c(C(=O)N4CC[C@H](c5ccc(C(F)(F)F)cc5)C4)cc3c21 [Example 443, (4-amino-7-chloro-1-methyl-1H-pyrazolo[4,3-c]quinolin-8-yl)((3R)-3-(4-(trifluoromethyl)phenyl)-1-pyrrolidinyl)methanone]
13 | 602 | Cn1ncc2c(N)nc3ccc(C(=O)N4CCOC[C@@H]4c4ccc(S(F)(F)(F)(F)F)cc4)cc3c21 [Example 447, (4-amino-1-methyl-1H-pyrazolo [4,3-c]quinolin-8-yl)((3S)-3-(4-(pentafluoro-lambda~6~-sulfanyl)phenyl)-4-morpholinyl)methanone]
